Results from patent US7511044B2, “Vanilloid receptor ligands and their use in treatments” (Amgen Inc., priority 2004, dated 2009).

CC(=O)Nc1nc2c(Oc3cc(N4CCN(C(C)c5ccccc5F)CC4)ncn3)cccc2s1 (racemic) [Example 1, N-[4-(6-{4-[(1S,1R)-1-(2-Fluoro-phenyl)-ethyl]-piperazin-1-yl}-pyrimidin-4-yloxy)-benzothiazol-2-yl]-acetamide]
melting point: 202.6 to 204.3 °C

CC(=O)Nc1nc2c(Oc3cc(N4CCN(C(C)c5ccc(F)cc5)CC4)ncn3)cccc2s1 (racemic) [Example 2, N-[4-(6-{4-[(1S,1R)-1-(4-Fluoro-phenyl) -ethyl]-piperazine1-yl}-pyrimidin-4-yloxy)-benzothiazol-2-yl]-acetamide]
melting point: 247.3 °C

CC(=O)Nc1nc2c(Oc3cc(N4CCN([C@@H](C)c5ccc(F)cc5)CC4)ncn3)cccc2s1 [Example 21, N-[4-(6-{4-[(1S)-1-(4-Fluoro-phenyl)-ethyl]-piperazine 1-yl}-pyrimidin-4-yloxy)-benzothiazol-2-yl]-acetamide]
melting point: 243.6 to 245.7 °C

CC(=O)Nc1nc2c(Oc3cc(N4CCN([C@H](C)c5ccc(F)cc5)CC4)ncn3)cccc2s1 [Example 22, N-[4-(6-{4-[(1R)-1-(4-Fluoro-phenyl)-ethyl]-piperazine1-yl}-pyrimidin-4-yloxy)-benzothiazol-2-yl]-acetamide]
melting point: 243.8 to 245.9 °C

C[C@@H](c1ccc(F)cc1)N1CCN(c2cc(Oc3cccc4ccc(N)nc34)ncn2)CC1 [Example 24, 8-(6-{4-[(1S)-(4-Fluoro-phenyl)-ethyl]-piperazine-1-yl}-pyrimidin-4-yloxy)-quinolin-2-ylamine]
melting point: 167 °C

C[C@H](c1ccc(F)cc1)N1CCN(c2cc(Oc3cccc4[nH]c(=O)c(N)nc34)ncn2)CC1 [Example 26, 3-Amino-5-(6-{4-[(1R)-1-(4-fluoro-phenyl)-ethyl]-piperazin-1-yl}-pyrimidin-4-yloxy)-1H-quinoxalin-2-one]
melting point: 292.2 to 293.9 °C

C[C@@H](c1ccc(F)cc1)N1CCN(c2cc(Oc3cccc4[nH]c(=O)c(N)nc34)ncn2)CC1 [Example 27, 3-Amino-5-(6-{4-[(1S)-1-(4-fluoro-phenyl)-ethyl]-piperazin-1-yl}-pyrimidin-4-yloxy)-1H-quinoxalin-2-one]
melting point: 294.5 to 295.3 °C

CC(c1ccc(F)cc1)N1CCN(c2cc(Oc3cccc4sc(N)nc34)ncn2)CC1 (stereo not shown) [Example 52, 4-(6-(4-(1-(4-Fluorophenyl)ethyl)piperazin-1-yl)pyrimidin-4-yloxy)benzo[d]thiazol-2-amine]
melting point: 222 °C

C[C@@H](c1ccc(F)cc1)N1CCN(c2cc(Oc3cccc4ncc(N)nc34)ncn2)CC1 [Example 54, (S)-8-(6-(4-(1-(4-Fluorophenyl)ethyl)piperazin-1-yl)pyrimidin-4-yloxy)quinoxalin-2-amine]
melting point: 114 °C

C[C@H](c1ccc(F)cc1)N1CCN(c2cc(Oc3cccc4ncc(N)nc34)ncn2)CC1 [Example 55, (R)-8-(6-(4-(1-(4-Fluorophenyl)ethyl)piperazin-1-yl)pyrimidin-4-yloxy)quinoxalin-2-amine]
melting point: 118 °C

C[C@H](c1ccc(F)cc1)N1CCN(c2cc(Oc3cc(F)cc4[nH]c(=O)c(N)nc34)ncn2)CC1 [Example 57, (R)-3-Amino-7-fluoro-5-(6-(4-(1-(4-fluorophenyl)ethyl)piperazin-1-yl)pyrimidin-4-yloxy)quinoxalin-2(1H)-one]
melting point: 315 °C

C[C@@H](c1ccc(F)cc1)N1CCN(c2cc(Oc3cc(F)cc4[nH]c(=O)c(N)nc34)ncn2)CC1 [Example 58, (S)-3-Amino-7-fluoro-5-(6-(4-(1-(4-fluorophenyl)ethyl)piperazin-1-yl)pyrimidin-4-yloxy)quinoxalin-2(1H)-one]
melting point: 288 °C

C[C@H](c1ccc(F)cc1)N1CCN(c2cc(Oc3cccc4c3nc(N)c(=O)n4C)ncn2)CC1 [Example 59, (R)-3-Amino-5-(6-(4-(1-(4-fluorophenyl)ethyl)piperazin-1-yl)pyrimidin-4-yloxy)-1-methylquinoxalin-2(1H)-one]
melting point: 256 °C

CC(c1ccc(F)cc1)N1CCN(c2cc(Oc3cccc4[nH]c(=O)ccc34)ncn2)CC1 (stereo not shown) [Example 61, 5-(6-(4-(1-(4-Fluorophenyl)ethyl)piperazin-1-yl)pyrimidin-4-yloxy)quinoline-2(1H)-one]
melting point: 242.2 °C

CC(=O)Nc1nc2c(Oc3cc(N4CCN(C(C)c5ccc(F)cc5)CC4)ncn3)cccc2o1 (stereo not shown) [Example 66, N-(4-(6-(4-(1-(4-Fluorophenyl)ethyl)piperazin-1-yl)pyrimidin-4-yloxy)benzo[d]oxazol-2-yl)acetamide]
melting point: 199.8 °C

CC(=O)Nc1ccc2cccc(Oc3cc(N4CCN([C@H](C)c5ccc(F)cc5)CC4)ncn3)c2n1 [Example 69, (R)-N-(8-(6-(4-(1-(4-Fluorophenyl)ethyl)piperazin-1-yl)pyrimidin-4-yloxy)quinolin-2-yl)acetamide]
melting point: 134 °C

CC(c1ccc(F)cc1)N1CCN(c2cc(Oc3cccc4ccncc34)ncn2)CC1 (stereo not shown) [Example 70, 8-(6-(4-(1-(4-Fluorophenyl)ethyl)piperazin-1-yl)pyrimidin-4-yloxy)isoquinoline]
melting point: 114 °C

CC(c1ccc(F)cc1)N1CCN(c2cc(Oc3cccc4c3NCC(=O)N4)ncn2)CC1 (stereo not shown) [Example 71, 5-(6-(4-(1-(4-Fluorophenyl)ethyl)piperazin-1-yl)pyrimidin-4-yloxy)-3,4-dihydroquinoxalin-2-(1H)-one]
melting point: 221 °C

CC(c1ccc(F)cc1)N1CCN(c2cc(Oc3cccc4c(=O)[nH]ccc34)ncn2)CC1 (stereo not shown) [Example 72, 5-(6-(4-(1-(4-Fluorophenyl)ethyl)piperazin-1-yl)pyrimidin-4-yloxy)isoquinolin-1(2H)-one]
melting point: 249 °C
